Assay results published in PubChem BioAssay AID1963976 (Molecular Pharmacology Branch, DTP, NCI, 2024).
Blank lines part the entries; values can stand above or below the compound they belong to.

Tested on: 435261-313-R-J1-PDC tumor spheroid viability
Assay: Anticancer human tumor 435261-313-R-J1-PDC patient-derived colon adenocarcinoma cell line growth inhibition [PI3K]
Conditions: spheroids with HUVEC and MSC; for IC50: curve of first compound; for viability, T/C: stronger effect = lower value
Description: Combinatorial screen of targeted agents with the PI3K inhibitors inavolisib, alpelisib, duvelisib, and copanlisib in multi-cell type tumor spheroids
A high-throughput screen of multi-cell type tumor spheroids was designed to identify active combinations of targeted small molecules and PI3K pathway inhibitors. Complex spheroids include a stromal component modeled by human endothelial cells (HUVEC) and fibroblasts modeled by human mesenchymal stem cells (MSCs). The concentration ranges selected for each drug and investigational agent were based upon clinically achievable concentrations if the clinical Cmax of the agent was known.
Compounds. The drugs and investigational agents: inavolisib (NSC800729), alpelisib (NSC765974), duvelisib (NSC772469), copanlisib (NSC816437), ipatasertib (NSC767898), afuresertib (NSC778305), talazoparib (NSC767125), sapanisertib (NSC764658), selumetinib (NSC741078), tovorafenib (DAY101, NSC766906), vemurafenib (NSC761431), ravoxertinib (NSC781343), sotorasib (NSC818433), MRTX1133 (NSC 836407), abemaciclib (NSC 768073), palbociclib (NSC758247), venetoclax (NSC 766270), SY5609 (NSC837396), enzalutamide (NSC755605), and darolutamide (NSC825331), were obtained from the National Cancer Institute (NCI) Developmental Therapeutics Program Chemical Repository. The FDA-approved anticancer drug set is available from the NCI Developmental Therapeutics Program. […] The stock solutions were prepared in dimethyl sulfoxide (DMSO, Sigma-Aldrich, St. Louis, MO, cat. D2650) at 800-fold the tested concentration and stored at -70 degrees C prior to their use. All drugs and investigational agents were tested over a range starting from a high concentration at or near the clinical Cmax and decreasing in half-log increments. If the clinical Cmax for an agent had not been determined, the highest concentration tested was 10 microM.
Cell Culture. All cells were maintained in an incubator at 37 degrees C and 5% CO2 with 95% humidity. The PDC lines were cultured according to standard operating procedures established by the NCI PDMR (https://pdmr.cancer.gov/sops/default.htm). All PDCs were thawed and cultured in Matrigel-coated flasks prepared with a working solution of 1X Ham's F-12 nutrient mix, without supplementation (Invitrogen, Waltham, MA, cat. 11765054), 100 U/mL penicillin-streptomycin (Invitrogen, cat. 15140122), and 2.5% Matrigel (Corning Inc., Corning, NY, cat. 354248) for the first three passages. The 354836-022-R-J1-PDC, 475296-252-R-J1-PDC, and 997726-040-R-J2-PDC lines were cultured in 6A media, which includes advanced DMEM/F-12 (Thermo Fisher Scientific, cat. 12634028), 10 mM HEPES (Thermo Fisher Scientific, cat. 15630080), 1X GlutaMAX supplement (Thermo Fisher Scientific, cat. 35050061), 0.1 mg/mL primocin (InvivoGen, San Diego, CA, cat. ant-pm-2), 10% defined fetal bovine serum, heat inactivated (HyClone Laboratories Inc., Logan, UT, cat. SH30070.03HI), 50% L-WRN conditioned media (ATCC, cat. CRL-3276), 1.25 mM N-Acetyl-L-cysteine (Sigma-Aldrich, cat. A9165), 10 mM nicotinamide (Sigma-Aldrich, cat. N0636), 1X B-27 supplement (Thermo Fisher Scientific, cat. 17504044), 1X N-2 supplement (Thermo Fisher Scientific, cat. 17502048), and 10 microM Y-27632 dihydrochloride (Tocris Bioscience, Bristol, United Kingdom, cat. 1254). The 624824-186-R-J2-PDC line was cultured in 6C/Colon 1B media, which includes all 6A media components plus 50 ng/mL human EGF recombinant protein (Thermo Fisher Scientific, cat. PHG0311). […]

[1] = second compound 0.00316 µM, first compound 0.0316 µM
[2] = second compound 0.00316 µM, first compound 0.1 µM
[3] = second compound 0.01 µM, first compound 0.0316 µM
[4] = second compound 0.01 µM, first compound 0.1 µM
[5] = second compound 0.0316 µM, first compound 0.0316 µM
[6] = second compound 0.0316 µM, first compound 0.1 µM
[7] = second compound 0.1 µM, first compound 0.0316 µM
[8] = second compound 0.1 µM, first compound 0.1 µM
[9] = second compound 0.316 µM, first compound 0.0316 µM
[10] = second compound 0.316 µM, first compound 0.1 µM
[11] = second compound 1 µM, first compound 0.0316 µM
[12] = second compound 1 µM, first compound 0.1 µM

IC50 (second compound 0.00316 µM): 5070 nM
IC50 (second compound 0.01 µM): 3750 nM
IC50 (second compound 0.0316 µM): 2480 nM
IC50 (second compound 0.1 µM): < 31.6 nM
IC50 (second compound 0.316 µM): < 31.6 nM
IC50 (second compound 1 µM): < 31.6 nM
SMILES: CC(C)NCC(C(=O)N1CCN(c2ncnc3c2C(C)CC3O)CC1)c1ccc(Cl)cc1 (centres undefined) + CC(Nc1ccc2c(c1)OCCn1cc(N3C(=O)OCC3C(F)F)nc1-2)C(N)=O
viability, T/C [1]: 76.3%
viability, T/C [2]: 77.9%
viability, T/C (second compound 0.00316 µM, first compound 0.316 µM): 69.5%
viability, T/C (second compound 0.00316 µM, first compound 1 µM): 72.3%
viability, T/C (second compound 0.00316 µM, first compound 3.16 µM): 63.6%
viability, T/C (second compound 0.00316 µM, first compound 10 µM): 31.3%
viability, T/C [3]: 88.2%
viability, T/C [4]: 94.7%
viability, T/C (second compound 0.01 µM, first compound 0.316 µM): 73.6%
viability, T/C (second compound 0.01 µM, first compound 1 µM): 80.1%
viability, T/C (second compound 0.01 µM, first compound 3.16 µM): 54.7%
viability, T/C (second compound 0.01 µM, first compound 10 µM): 18.2%
viability, T/C [5]: 62.3%
viability, T/C [6]: 56.3%
viability, T/C (second compound 0.0316 µM, first compound 0.316 µM): 50.5%
viability, T/C (second compound 0.0316 µM, first compound 1 µM): 60.8%
viability, T/C (second compound 0.0316 µM, first compound 3.16 µM): 47.3%
viability, T/C (second compound 0.0316 µM, first compound 10 µM): 13.3%
viability, T/C [7]: 48.6%
viability, T/C [8]: 28.7%
viability, T/C (second compound 0.1 µM, first compound 0.316 µM): 34.8%
viability, T/C (second compound 0.1 µM, first compound 1 µM): 31.8%
viability, T/C (second compound 0.1 µM, first compound 3.16 µM): 24.7%
viability, T/C (second compound 0.1 µM, first compound 10 µM): 12.6%
viability, T/C [9]: 21%
viability, T/C [10]: 21.4%
viability, T/C (second compound 0.316 µM, first compound 0.316 µM): 18.4%
viability, T/C (second compound 0.316 µM, first compound 1 µM): 18.7%
viability, T/C (second compound 0.316 µM, first compound 3.16 µM): 19%
viability, T/C (second compound 0.316 µM, first compound 10 µM): 10.6%
viability, T/C [11]: 18.1%
viability, T/C [12]: 15.9%
viability, T/C (second compound 1 µM, first compound 0.316 µM): 13.8%
viability, T/C (second compound 1 µM, first compound 1 µM): 18.4%
viability, T/C (second compound 1 µM, first compound 3.16 µM): 17.1%
viability, T/C (second compound 1 µM, first compound 10 µM): 10.8%

IC50 (second compound 0.00316 µM): > 100 nM
IC50 (second compound 0.01 µM): > 100 nM
IC50 (second compound 0.0316 µM): 43.5 nM
IC50 (second compound 0.1 µM): 0.592 nM
IC50 (second compound 0.316 µM): < 0.316 nM
IC50 (second compound 1 µM): < 0.316 nM
SMILES: Cn1ncnc1[C@H]1c2n[nH]c(=O)c3cc(F)cc(c23)N[C@@H]1c1ccc(F)cc1 + CC(Nc1ccc2c(c1)OCCn1cc(N3C(=O)OCC3C(F)F)nc1-2)C(N)=O
viability, T/C (second compound 0.00316 µM, first compound 0.000316 µM): 105%
viability, T/C (second compound 0.00316 µM, first compound 0.001 µM): 88.5%
viability, T/C (second compound 0.00316 µM, first compound 0.00316 µM): 102%
viability, T/C (second compound 0.00316 µM, first compound 0.01 µM): 96.3%
viability, T/C [1]: 83.9%
viability, T/C [2]: 69.4%
viability, T/C (second compound 0.01 µM, first compound 0.000316 µM): 74.4%
viability, T/C (second compound 0.01 µM, first compound 0.001 µM): 85.5%
viability, T/C (second compound 0.01 µM, first compound 0.00316 µM): 81.7%
viability, T/C (second compound 0.01 µM, first compound 0.01 µM): 95.8%
viability, T/C [3]: 68%
viability, T/C [4]: 50.2%
viability, T/C (second compound 0.0316 µM, first compound 0.000316 µM): 67.4%
viability, T/C (second compound 0.0316 µM, first compound 0.001 µM): 81.3%
viability, T/C (second compound 0.0316 µM, first compound 0.00316 µM): 92.6%
viability, T/C (second compound 0.0316 µM, first compound 0.01 µM): 86.1%
viability, T/C [5]: 53.6%
viability, T/C [6]: 40.4%
viability, T/C (second compound 0.1 µM, first compound 0.000316 µM): 55.6%
viability, T/C (second compound 0.1 µM, first compound 0.001 µM): 42.9%
viability, T/C (second compound 0.1 µM, first compound 0.00316 µM): 41.9%
viability, T/C (second compound 0.1 µM, first compound 0.01 µM): 39.4%
viability, T/C [7]: 36.1%
viability, T/C [8]: 30.7%
viability, T/C (second compound 0.316 µM, first compound 0.000316 µM): 21.6%
viability, T/C (second compound 0.316 µM, first compound 0.001 µM): 20.8%
viability, T/C (second compound 0.316 µM, first compound 0.00316 µM): 26.2%
viability, T/C (second compound 0.316 µM, first compound 0.01 µM): 19.5%
viability, T/C [9]: 20.6%
viability, T/C [10]: 17.1%
viability, T/C (second compound 1 µM, first compound 0.000316 µM): 18.3%
viability, T/C (second compound 1 µM, first compound 0.001 µM): 17.5%
viability, T/C (second compound 1 µM, first compound 0.00316 µM): 17%
viability, T/C (second compound 1 µM, first compound 0.01 µM): 20.7%
viability, T/C [11]: 20.2%
viability, T/C [12]: 12.5%
